Experimental data taken from patent US20100048682A1, “INHIBITING DNA POLYMERASE BETA TO ENHANCE EFFICACY OF ANTICANCER AGENTS” (UNIVERSITY OF PITTSBURGH - OF THE COMMONWEALTH SYSTEM OF …, priority 2005, published 2010).

How the values were obtained:
[1] = system: pol-β null cells (88TAg); assay: Growth inhibition assay (modified MTT, MTS); type: cell-based, mouse; details: MTS viability 48 hr after 1-2 hr exposure
Procedure: (§1) Culture Conditions and Cell Cytotoxicity Assays. Transformed MEFs were cultured at 37° C. in a humidified incubator with 10% CO2 in DMEM supplemented with 10% fetal bovine serum, penicillin (50 units/ml), streptomycin (50 μg/ml) and Glutamax (4 mM). Human embryonic kidney cells (293T) were cultured similarly in DMEM supplemented with 10% fetal bovine serum, penicillin (50 units/ml), streptomycin (50 μg/ml) and Glutamine (4 mM). TMZ, MMS and MMC induced cytotoxicity was determined by growth inhibition assays. Briefly, cells were seeded in 96-well dishes at 1250 cells/well. After 24 hours, cells (quadruplicate wells) were exposed to serial dilutions of damaging agent in growth media for 1-2 hours (or as indicated in the text) at 37° C. Drug-containing medium was replaced with fresh medium and the plates were incubated at 37° C. for 48 hours at which point the total cell number was determined by a modified MTT assay (MTS; Promega). Metabolically active cells were quantified by the bioreduction of the MTS tetrazolium compound by recording absorbance at 490 nm using a microplate reader. Results were calculated from the average of four separate experiments and are reported as the % of treated cells relative to the cells in control wells (% Control).

[2] = system: MDA-MB-231 cells with Mpg/Aag over-expression combined with pol-β knockdown; assay: Temozolomide growth inhibition assay (MTS); type: cell-based, human; details: TMZ 48 hours; compared to the parental MDA-MB-231 cells
Procedure: Culture Conditions and Cell Cytotoxicity Assays. Human Mpg over-expression, human pol-β knockdown and human pol-β over-expressing MDA-MB-231 breast cancer cell lines were cultured at 37° C. in a humidified incubator with 5% CO2 in RPMI 1640 (Cambrex Biosciences Group, Walkersville, Md.) supplemented with 10% heat inactivated fetal bovine serum and gentamicin (10 μg/ml). Temozolomide induced cytotoxicity was determined by growth inhibition assays. Briefly, cells were seeded in 96-well dishes at 2000 cells/well. After 24 hours, cells (quadruplicate wells) were exposed to serial dilutions of Temozolomide in growth media at 37° C. for 48 hours at which point the total cell number was determined by a modified 3-(4,5-dimethylthiazol-2-yl)-2,5-diphenyltetrazolium bromide (MTT) assay (MTS; Promega Madison, Wis.) (Cory et al., Cancer Communications; 3(7):207-12 (1991)). Metabolically active cells were quantified by the bioreduction of the MTS tetrazolium compound by recording absorbance at 490 nm using a microplate reader. Results were calculated from the average of four separate experiments and are reported as the % of treated cells relative to the cells in control wells (% Control).

[3] = system: Wt cells (92TAg); assay: TMZ growth inhibition assay (modified MTT, MTS); type: cell-based; details: Mus musculus, TMZ exposure 48 hr
Procedure: as §1

[4] = system: Wt pol-β knockdown cells over-expressing hAag (wt hAag.2/polβ-KD.4, wt hAag.3/polβ-KD.4); assay: TMZ growth inhibition assay (modified MTT, MTS); type: cell-based, mouse; details: for IC50: Mus musculus
Source text: Cell Lines and Transfection Conditions. Transformed MEF cell lines (92TAg, Wt; 88TAg, pol-β null; 308TAg, Aag null and 283TAg, pol-β null/Aag null) have been described previously and are available from the ATCC. 293T cells were a gift from J. O'Bryan (NIEHS, NIH). Primary cultures of pol-λ, null MEFs were a kind gift from C.A. Reynaud (Faculte de Medecine Necker-Enfants Malades, Paris, France). The pol-ι null MEFs were derived from C129SvJ mice as described previously and identified by PCR to confirm the pol-ι null mutation. These were immortalized by SV40 large T-antigen (370TAg, pol-λ, null; 369TAg, pol-ι null) as described previously. Human Aag over-expressing cell lines were prepared as follows: briefly, 1.5×10^5 cells were seeded into 60 mm dishes and incubated for 24-30 hours at 10% CO2 at 37° C. The Aag expression plasmid (pRS1422) was transfected using FuGene 6 Transfection Reagent (Roche Diagnostic Corp) according to the manufacturer's instructions. Stable cell lines were selected in G418 (600 μg/ml) for 2 weeks, individual clones were amplified and 20 μg of nuclear extract was analyzed by immunoblotting for the expression of human Aag protein and then re-probed for expression of pol-β and PCNA.
Transfection of the pSuper siRNA plasmids was completed as follows: Briefly, 1.5×10^5 cells were seeded into 60 mm dishes and incubated for 24-30 hours at 10% CO2 at 37° C. […] For transient transfections, cells were lysed 24 hours post transfection by boiling in Laemmli buffer and analyzed by immunoblotting for the expression of the V5-pol-β transgene using anti-V5 (Invitrogen). […] Individual clones were amplified and 20 μg of nuclear extract was analyzed by immunoblotting for the expression of endogenous pol-β protein using the Nucbuster nuclear protein extract reagent (Novagen) and then re-probed for expression of PCNA as a loading control.
Culture Conditions and Cell Cytotoxicity Assays. […] TMZ, MMS and MMC induced cytotoxicity was determined by growth inhibition assays. […]

[5] = system: γ-H2AX; assay: γ-H2AX immunoblotting; type: cell-based, mouse; details: MMS 1 hr or TMZ 2 hr exposure
Procedure: For γ-H2AX immunoblotting, protein was prepared as follows: briefly, 6×10^5 cells were seeded into 150 mm dishes and incubated for 24 hours at 10% CO2 at 37° C. Cells were treated with MMS and TMZ for 1 or 2 hr respectively, and whole cells were scraped from the plates in 1×PBS, washed, and immediately placed on dry ice. Thawed pellets were re-suspended in a 1:1 ratio of RIPA buffer and Laemmli buffer. Samples were boiled for 5 minutes and protein from an equal cell number was added to each well. Protein was separated by electrophoresis in a 12% SDS-polyacrylamide gel and electro-transferred to a […] nitrocellulose membrane (Trans-Blot, Bio-Rad). Membranes were blocked for 20 minutes in a 3% dried milk/TBS solution at room temperature and incubated with 0.5-1 μg/ml of anti-phospho-H2AX (Serine 139) (Upstate) prepared in TBS/3% dried milk and 0.1% Tween20 over night at 4° C. Membranes were washed twice with water and incubated with horseradish peroxidase (HRP)-conjugated secondary antibody (goat anti-rabbit HRP; Bio-Rad) at room temperature for 1.5 hour. Following a series of washes with water and TBS, HRP activity was detected using the Super Signal West Femto reagent (Pierce). Each membrane was re-probed with anti-PCNA to correct for differences in protein loading, and densitometry was used to quantitate with Quantity One 1-D analysis software (BioRad).

SMILES: CO[C@@]12[C@H](COC(N)=O)C3=C(C(=O)C(C)=C(N)C3=O)N1C[C@@H]1N[C@@H]12 [MMC, Mitomycin C]
- sensitivity of pol-β null cells relative to Wt and other null cells [1]: equally sensitive

SMILES: Cn1nnc2c(C(N)=O)ncn2c1=O [TMZ, temozolomide]
- decrease in IC50 [2]: ~10 fold
- IC50 [3]: 2600 µM
- IC50 ([4]; TMZ exposure 2 hr, viable cells after 48 hr, wt hAag.2/polβ-KD.4 and wt hAag.3/polβ-KD.4 cells): 1250 µM
- IC50 ([4]; TMZ exposure 48 hr, wt hAag.3/Polβ-KD.4 cells): ~700 µM
- TMZ efficacy improved ([4]; TMZ exposure 48 hr, hAag over-expression plus pol-β knockdown compared with Wt cells): ~4 fold

SMILES: COS(C)(=O)=O [MMS, Methyl methanesulfonate]
- γ-H2AX expression in pol-β deficient cells as compared to Wt cells [5]: clear increase
